The values below come from PMC8303187, “Anti-Inflammatory Effects of Compounds from Cudrania tricuspidata in HaCaT Human Keratinocytes” (International Journal of Molecular Sciences, 2021).

Series [1] concerns IκBα phosphorylation in HaCaT cells. The series is described as follows: Phosphorylation of IκBα in TNF-α + IFN-γ-treated HaCaT cells (Western blotting). Conditions: HaCaT cells pretreated 3 h, then TNF-α + IFN-γ (20 ng/mL) 10 min; Western blot. Type of series: cell-based, human. The text has this: (§1) The activation of NF-κB by TNF-α and/or IFN-γ results from high levels of IκB phosphorylation and the degradation of IκB in keratinocytes. NF-κB–mediated inflammation is a significant component of innate immunity and seems to be a final common pathway for the aggravation of the inflammatory response to stimuli in immune diseases of the skin [56]. To determine the potential mechanisms of the inhibition of TNF-α + IFN-γ-induced pro-inflammatory enzyme and the mediator levels by the six compounds from C. tricuspidata, their effects on the phosphorylation and degradation of cytoplasmic IκBα and on p65 translocation to the nucleus were investigated. […] In addition, compounds 13, 4, and 14 inhibited the phosphorylation of IκBα (Figure 5C,D). When HaCaT cells were exposed to TNF-α + IFN-γ, NF-κB p65 translocated from the cytoplasm to the nucleus.
(§2) Figure 5 Effects of the six compounds from C. tricuspidata on the degradation of IκB-α (A,B), the phosphorylation of IκBα (C,D), and the translocation of NF-κB p65 to the nucleus (E,F) in HaCaT cells. Cells were pretreated with the six compounds from C. tricuspidata at the indicated concentrations for 3 h and stimulated with TNF-α + IFN-γ (20 ng/mL) for 10 min. IκBα, p-IκBα, and NF-κB p65 were analyzed using Western blotting, as described in the Materials and Methods section. Representative blots from four independent experiments are presented. The immunoblots were quantified using ImageJ software. The band intensity was normalized to that of actin or anti-proliferating cell nuclear antigen (PCNA). * p < 0.05, ** p < 0.01, *** p < 0.001 compared with TNF-α + IFN-γ only.
Cells were harvested and pelleted via centrifugation at 200× g for 3 min, washed with PBS, and lysed in 20 mM Tris-HCl buffer (pH 7.4) containing a protease inhibitor mixture (0.1 mM phenylmethanesulfonyl fluoride, 5 mg/mL aprotinin, 5 mg/mL pepstatin A, and 1 mg/mL chymostatin). The protein concentration was determined using a protein assay dye reagent concentrate (#5000006; Bio-Rad Laboratories, Hercules, CA, USA). […]
Background: A western blot detects proteins with antibodies after separation by electrophoresis.

In series [2] the test system is IL-6 production in TNF-α + IFN-γ-treated HaCaT cells. The series is described as follows: IL-6 production in TNF-α + IFN-γ-treated HaCaT cells (ELISA). Type of series: cell-based, human. Particulars: for IL-6 production: HaCaT cells pre-treated 3 h, then TNF-α + IFN-γ 24 h, result in words; for IC50: Homo sapiens, HaCaT cells pre-incubated with compound 3 h, then TNF-α + IFN-γ (20 ng/mL) 24 h, ELISA. The text has this:
The skin consists of two basic layers: the epidermis and dermis. The epidermis is mainly composed of keratinocytes. Pro-inflammatory cytokines are known to play an important role in the immune response in keratinocytes. Previous studies have reported the roles of TNF-α and IFN-γ in inducing NF-κB activation, which upregulates the production of IL-6 and IL-8 [25]. […] Accordingly, the effect of the 16 compounds from C. tricuspidata on IL-6 production in TNF-α + IFN-γ-treated HaCaT cells were determined. Briefly, HaCaT cells were pre-incubated with different concentrations of the 16 compounds for 3 h, and then stimulated with TNF-α + IFN-γ for 24 h.
(§3) The cytokines and chemokines in IL-6, IL-8, CCL17 (TARC), and CCL5 (RANTES) HaCaT cells were detected using an enzyme-linked immunosorbent assay. The levels of these cytokines and chemokines were measured using commercial ELISA kits (BioLegend, San Diego, CA, USA), according to the manufacturer’s instructions.
Figure S2. Effects of the 16 compounds from C. tricuspidata on IL-6 production in TNF-α+IFN-γ-treated HaCaT cells (A, B, and C). Cells were pre-treated with the indicated concentrations of the 16 compounds from C. tricuspidata for 3 h and then stimulated with TNF-α+IFN-γ (20 ng/mL) for 24 h. IL-6 levels were determined as described in the Materials and Methods section. The results are presented as the mean ± standard deviation of three experiments. *p < 0.05, **p < 0.01, and ***p < 0.001 compared with TNF-
A general note: An ELISA detects its analyte on a solid surface through an enzyme-linked reagent.

The test system of series [3] is IL-8 production in TNF-α + IFN-γ-treated HaCaT cells. Nature of the series: IL-8 production in TNF-α + IFN-γ-treated HaCaT cells (ELISA). Type of series: cell-based, human. Particulars: for IL-8 production: HaCaT cells pre-treated 3 h, then TNF-α + IFN-γ 24 h, result in words; for IC50: Homo sapiens, HaCaT cells pre-incubated with compound 3 h, then TNF-α + IFN-γ (20 ng/mL) 24 h, ELISA. How it is done:
Next, the effect of the 16 compounds from C. tricuspidata on IL-8 production in HaCaT cells were determined. Briefly, HaCaT cells were pre-incubated with different concentrations of the 16 compounds for 3 h. Thereafter, the cells were subjected to TNF-α + IFN-γ stimulation for 24 h. […] Compound 2, with its flavanone skeletons, has been studied for its cyclooxygenase and tyrosinase inhibitory effects. In a previous study, compound 2 altered the anti-neuroinflammatory response in microglia. Compound 6, a prenylated flavanone, has been reported to have apoptotic effects on A375.S2 melanoma cells and to lead to the induction of apoptotic cell death in KM12, Caco-2, HT29, HCC2998, HCT116, and SW48 cell lines. […] This is the first report on the biological action of compounds 2, 6, 12, 13, 4, and 14 on the inhibitory effects of skin inflammatory factors in skin HaCaT cells. Therefore, further mechanism studies of these six compounds in HaCaT cells were conducted.
as §3
Figure S3. Effects of the 16 compounds from C. tricuspidata on IL-8 (A, B, and C) production in TNF-α+IFN-γ-treated HaCaT cells. The cells were pre-treated with the indicated concentrations of the C. tricuspidata compounds for 3 h, and then stimulated with TNF-α+IFN-γ (20 ng/mL) for 24 h. […] levels were determined as described in the Materials and Methods section. Data are expressed as the mean ± standard deviation of three experiments. *p < 0.05, **p < 0.01, and ***p < 0.001 compared with TNF- […]
(1 picture or pasted object on this page, not shown here)

Series [4] deals with NF-κB p65 translocation to the nucleus in HaCaT cells. Nature of the series: NF-κB p65 translocation to the nucleus in TNF-α + IFN-γ-treated HaCaT cells (Western blotting). It is filed as cell-based, human. Conditions: HaCaT cells pretreated 3 h, then TNF-α + IFN-γ (20 ng/mL) 10 min; Western blot.
Text: as §1, §2
(§4) Cells were harvested and pelleted via centrifugation at 200× g for 3 min, washed with PBS, and lysed in 20 mM Tris-HCl buffer (pH 7.4) containing a protease inhibitor mixture (0.1 mM phenylmethanesulfonyl fluoride, 5 mg/mL aprotinin, 5 mg/mL pepstatin A, and 1 mg/mL chymostatin). The protein concentration was determined using a protein assay dye reagent concentrate (#5000006; Bio-Rad Laboratories, Hercules, CA, USA). A total of 30 micrograms of protein from each sample was resolved using 7.5% and 12% sodium dodecyl sulfate-polyacrylamide gel electrophoresis. Thereafter, the proteins were electrophoretically transferred onto Hybond enhanced chemiluminescence (ECL) nitrocellulose membranes (Bio-Rad Laboratories). The membranes were blocked with 5% skimmed milk, and sequentially incubated with the relevant primary antibody and horseradish peroxidase-conjugated secondary antibody, prior to ECL detection (Pierce Biotechnology, Rockford, IL, USA).
(§5) HaCaT cells were homogenized in PER-Mammalian Protein Extraction Buffer (1:20, w:v) (Pierce Biotechnology, Rockford, IL, USA) containing freshly added protease inhibitor cocktail I (EMD Biosciences, San Diego, CA, USA) and 1 mM phenylmethanesulfonyl fluoride. The cytosolic fractions were prepared using centrifugation at 16,000× g for 5 min at 4 °C, while the nuclear and cytoplasmic cell extracts were prepared using NE-PER nuclear and cytoplasmic extraction reagents, respectively (Pierce Biotechnology, Rockford, IL, USA).

Series [5] relates to IκBα degradation in HaCaT cells. The series is described as follows: Degradation of cytoplasmic IκBα in TNF-α + IFN-γ-treated HaCaT cells (Western blotting). Particulars: HaCaT cells pretreated 3 h, then TNF-α + IFN-γ (20 ng/mL) 10 min; Western blot. Type of series: cell-based, human.
Text: as §1, §2, §4, §5

In series [6] the test system is HaCaT cells. Nature of the series: Cell Counting Kit (CCK)-8 cell viability / cytotoxicity assay. Conditions: CCK-8 assay, 24 h, concentration values that did not result in cytotoxicity. On the technique in general: Tetrazolium assays rely on reduction of a dye to a coloured formazan, in cell work by metabolically active cells.
Procedure: The cytotoxicity of the 16 compounds was evaluated using a Cell Counting Kit (CCK)-8 assay on HaCaT cells.
To determine the viability of HaCaT cells, these were maintained at 2 × 10^4 cells/well, treated with the test compounds in the presence or absence of glutamate (5 mM), and cultured for 24 h. Subsequently, a CCK8 assay (Dojindo Laboratories, Kumamoto, Japan) was performed and the cells were incubated for 1 h. The absorbance was then measured at 450 nm.

For orientation: IC50 means the concentration that gives 50% inhibition. Take `C=CC(C)(C)c1c(OC)cc2oc3cc(O)c(O)cc3c(=O)c2c1O` [Compound 13, 1,6,7-trihydroxy-2-(1,1-dimethyl-2-propenyl)-3-methoxyxanthone]: the “phosphorylation of IκBα” value in series [1] is on record as “inhibited”. In series [2], the IL-6 production entry is listed as “significantly decreased” and the 50% inhibitory concentration (IC50) is 9.69 ± 2.15 µM. In addition, in series [3], the IL-8 production result was “decreased” and the IC50 came out at 3.87 ± 0.96 µM. Moreover, the “NF-κB p65 translocation to the nucleus” value in series [4] is “no significant effect”. For the same compound, the “degradation of IκBα in the cytoplasm” value in series [5] was “inhibit”. The same compound displayed a Cytotoxicity in series [6] above 40 µM.

As for `CC(C)=CCc1c(O)cc2c(c1O)C(=O)C[C@@H](c1ccc(O)cc1O)O2` [Compound 4, cudraflavanone B], in series [1], the “phosphorylation of IκBα” value was “inhibited”. In series [2], the IL-6 production result is listed as “significantly decreased” and the IC50 was above 20 µM. In series [3], the IL-8 production result is “decreased” and the IC50 turned out to be 9.88 ± 3.22 µM. In series [4], the “NF-κB p65 translocation to the nucleus” value was “significantly inhibited”. The “degradation of IκBα in the cytoplasm” value in series [5] is given as “inhibit”. The same compound registered a Cytotoxicity in series [6] above 20 µM.

Take `CC(C)=CCc1c(O)cc2oc(-c3ccc(O)cc3O)c(CC=C(C)C)c(=O)c2c1O` [Compound 6, cudraflavone C]: in series [2], the IL-6 production entry is reported as “significantly decreased” and the IC50 was 2.78 ± 0.75 µM. In series [3], the IL-8 production result is “decreased” and the IC50 is 2.16 ± 0.5 µM. Further, the “NF-κB p65 translocation to the nucleus” value in series [4] is listed as “significantly inhibited”. Further, in series [5], the “degradation of IκBα in the cytoplasm” value was “inhibit”. In series [6], this compound gave a Cytotoxicity above 5 µM.

With `C=CC(C)(C)c1c(O)cc(O)c2c(=O)c3cc(O)c(O)cc3oc12` [Compound 14, cudratricusxanthone L], the “phosphorylation of IκBα” value in series [1] is “inhibited”. In series [2], the IL-6 production result is reported as “significantly decreased” and the IC50 is 9.86 ± 0.92 µM. Besides, in series [3], the IL-8 production result is “decreased” and the 50% inhibitory concentration (IC50) turned out to be 3.7 ± 0.7 µM. Moreover, the “NF-κB p65 translocation to the nucleus” value in series [4] is “significantly inhibited”. In addition, the “degradation of IκBα in the cytoplasm” value in series [5] is reported as “inhibit”. The compound further yielded a Cytotoxicity in series [6] above 20 µM.
